Assay results: patent publication US20060160773A1, “Combretastatin derivatives with cytotoxic action” (priority 2003, published 2006)

What was measured:
cell growth = conditions: background statement; cited from earlier work
[1] = Evaluation of cardiovascular parameters (blood pressure, heart rate) in anaesthetised rats; assay type: in vivo; conditions: 20 or 40 mg/kg injected in the jugular vein, anaesthetised Wistar rats (FIG. 1)
Method: Combretastatin A4, its prodrug ST2494 and our water soluble selected compounds ST2495 and ST2496, diluted at the doses of 20 or 40 mg/kg in saline solution or for combretastatin A4 in 5% DMSO, were injected in the jugular vein of Wistar rats anaesthetised with 55 mg/kg Nembutal. The parameter considered were blood pressure and heart rate.

[2] = system: LoVo human colon adenocarcinoma; assay: Cytotoxicity test (sulforodamine B), LoVo; assay type: cell-based; conditions: 24 h exposure, 48 h recovery, SRB
Method: (§1) The cytotoxic effect of our derivatives was evaluated in series of human and murine cell lines.
(§2) The following cell lines, purchased from ATCC, were cultured according to the manufacturer's instructions: MeWo human melanoma, NCI-H460 human lung cancer, LoVo human colon adenocarcinoma, PC3 human prostate carcinoma, MES-SA human uterine sarcoma, HCT 116 human colorectal carcinoma, MCF-7 human breast carcinoma.
(§3) For the cytotoxicity test the cells were seeded at variable densities according to cell type in 96-well plates in normal culture medium (200 μl/well) and incubated for 24 hours at 37° C. On the next day, the study substances were added at scalar concentrations and the cells were incubated for a further 24 hours at 37° C. in a humidified atmosphere containing 5% CO2. At the end of the incubation period the medium containing the substances was removed and three washings with PBS were performed. At the end of the washings 200 μl/well of fresh medium were added and the plates were incubated at 37° C. for a further 48 hours. At the end of this incubation period the culture medium was removed by overturning the plates and 200 μl/well of PBS and 50 μl of 80% cold trichloroacetic acid (TCA) were added. The plates were then incubated in ice. […] The optical density was measured by spectrophotometric readout at 540 nm. […]

[3] = system: B16/BL6 murine melanoma line; assay: Cytotoxicity test (sulforodamine B), B16/BL6; assay type: cell-based; conditions: Mus musculus, B16-BL6, read-out: IC50 ± SE
Method: as §1
The B16/BL6 murine melanoma line, obtained from the M. Negri Institute in Milan, was cultured in DMEM containing 10% FBS and antibiotics.
(§4) For the cytotoxicity test the cells were seeded at variable densities according to cell type in 96-well plates in normal culture medium (200 μl/well) and incubated for 24 hours at 37° C. On the next day, the study substances were added at scalar concentrations and the cells were incubated for a further 24 hours at 37° C. in a humidified atmosphere containing 5% CO2. At the end of the incubation period the medium containing the substances was removed and three washings with PBS were performed. At the end of the washings 200 μl/well of fresh medium were added and the plates were incubated at 37° C. for a further 48 hours. At the end of this incubation period the culture medium was removed by overturning the plates and 200 μl/well of PBS and 50 μl of 80% cold trichloroacetic acid (TCA) were added. The plates were then incubated in ice. After 1 h the TCA was removed, the plates were washed three times by immersion in distilled water and dried first on blotting paper and then in the oven. 200 μl of 0.4% sulforodamine B in 1% acetic acid were then added to all wells. The plates were incubated at room temperature for a further 30 minutes. The sulforodamine B was removed by overturning, the plates were washed three times by immersion in 1% acetic acid, and then dried first on blotting paper and then in the oven. 200 μl of Tris base 10 mM were then added to all wells and the plates were placed under stirring for at least 20 min. The optical density was measured by spectrophotometric readout at 540 nm.
(§5) In the same table are reported the IC50 of ST2897, ST2898 and ST2899 on BMEC.

[4] = system: MES-SA human uterine sarcoma; assay: Cytotoxicity test (sulforodamine B), MES-SA; assay type: cell-based; conditions: Homo sapiens, MES-SA, read-out: IC50 ± SE
Method: as §1, §2, §4, §5

[5] = system: Human umbilical vein endothelial cells (HUVEC); assay: Cytotoxicity test (sulforodamine B), HUVEC; assay type: cell-based; conditions: Homo sapiens, read-out: IC50 ± SE
Method: as §1
Human umbilical vein endothelial cells (HUVEC), from the BioWhittaker company, were maintained in EGM-2 culture medium (BioWhittaker).
as §4, §5

MeWo human melanoma = assay: Cytotoxicity test (sulforodamine B), MeWo; assay type: cell-based; conditions: Homo sapiens, read-out: IC50 ± SE
Method: as §1, §2, §4, §5

[6] = system: A2780 human ovarian carcinoma line; assay: Cytotoxicity test (sulforodamine B), A2780; assay type: cell-based; conditions: Homo sapiens, A2780, read-out: IC50 ± SE
Method: as §1
(§6) The M109 murine lung cancer line, the HT29 human colon adenocarcinoma line, the A2780 human ovarian carcinoma line, obtained from the Milan Tumour Institute, were cultured in RPMI containing 10% FBS and antibiotics.
as §4, §5

[7] = system: Bovine microcirculatory endothelial cells (BMEC); assay: Cytotoxicity test (sulforodamine B), BMEC; assay type: cell-based; conditions: Bos taurus, Endothelial cell, read-out: IC50 ± SE
Method: as §1
(§7) Bovine microcirculatory endothelial cells (BMEC), isolated from bovine adrenal glands, were maintained in culture in DMEM containing 20% FBS, 50 μg/ml of bovine brain extract (BBE), 50 units/ml of heparin (SIGMA), 100 units/ml of gentami-cin (SIGMA) and 10 mg/ml of L-glutamine (Hyclone). EA-hy926, an immortalised hybridoma of HUVEC and adenocarcinoma cells, obtained from the University of Bari Department of Biomedical Sciences and Human Oncology, was cultured in DMEM added with 10% FBS and gentamicin.
as §4, §5

[8] = system: EA-hy926, an immortalised hybridoma of HUVEC and adenocarcinoma cells; assay: Cytotoxicity test (sulforodamine B), EA-hy926; assay type: cell-based; conditions: Homo sapiens, EA.hy 926; EAHY.926; 24 h exposure, 48 h recovery, SRB
Method: as §1, §7
as §3, with “hours.” for “hours. At the end of this incubation period the culture medium was removed by overturning the plates and 200 μl/well of PBS and 50 μl of 80% cold trichloroacetic acid (TCA) were added. The plates were then incubated in ice.”

[9] = system: PC3 human prostate carcinoma; assay: Cytotoxicity test (sulforodamine B), PC3; assay type: cell-based; conditions: 24 h exposure, 48 h recovery, SRB
Method: as §1, §2, §3

[10] = system: MCF-7 human breast carcinoma; assay: Cytotoxicity test (sulforodamine B), MCF-7; assay type: cell-based; conditions: Homo sapiens, MCF7, read-out: IC50 ± SE
Method: as §1, §2, §4, §5

[11] = system: HCT 116 human colorectal carcinoma; assay: Cytotoxicity test (sulforodamine B), HCT 116; assay type: cell-based; conditions: Homo sapiens, HCT-116, read-out: IC50 ± SE
Method: as §1, §2, §4, §5

[12] = system: HT29 human colon adenocarcinoma line; assay: Cytotoxicity test (sulforodamine B), HT29; assay type: cell-based; conditions: Homo sapiens, HT-29, read-out: IC50 ± SE
Method: as §1, §6, §4, §5

[13] = system: M109 murine lung cancer line; assay: Cytotoxicity test (sulforodamine B), M109; assay type: cell-based; conditions: Mus musculus, 24 h exposure, 48 h recovery, SRB
Method: as §1, §6
as §3, with “ice. After 1 h the TCA was removed, the plates were washed three times by immersion in distilled water and dried first on blotting paper and then in the oven.” for “ice.”

[14] = system: NCI-H460 human lung cancer; assay: Cytotoxicity test (sulforodamine B), NCI-H460; assay type: cell-based; conditions: Homo sapiens, NCI-H460, read-out: IC50 ± SE
Method: as §1, §2, §4, §5

[15] = system: tubulin rich in microtubule-associated proteins (MAP); assay: Tubulin polymerisation inhibition test; assay type: biochemical; conditions: vs not treated control; mean of 3 independent determinations; concentration not given
Method: The tubulin polymerisation test in the presence of ST2151 was performed as described by Shiff et al. (Biochemistry, 1981, 20: 3247-3252) with a number of modifications. In brief, tubulin rich in microtubule-associated proteins (MAP) was diluted to the concentration of 3 mg/ml in PEM buffer [100 mM PIPES (pH 6.9), 1 mM EGTA and 1 mM MgCl2] containing 1 mM GTP (GPEM), and maintained in ice. The solution was placed at 37° C. and polymerisation was monitored by measuring absorbance at 340 nm every 25 seconds with a spectrophotometer equipped with an electronic temperature control device (Cobas-Mira Analyzer). After 5 minutes, when the polymerised tubulin had reached a steady state, 5 μM Taxol, 1.35 μM Colcemid, or ST2151 were added and the absorbance measurements were taken for a further 15 min. The IC50 values were determined by non-linear regression analysis using “Prism GraphPad” software. Results were expressed as % inhibition of tubulin polymerization vs not treated control.
The value indicated in Table 2 is the mean of 3 independent determinations.

[16] = Cancer Res., 62:3408-3416, 2002; cited from earlier work

Structure (SMILES) | concentration inhibiting cell growth (cell growth) | blood pressure [1] | heart rate [1] | IC50 [2] [µM] | IC50 [3] [µM] | IC50 [4] [µM] | IC50 [5] [µM] | IC50 (MeWo human melanoma) [µM] | IC50 [6] [µM] | IC50 [7] [µM] | IC50 [8] [µM] | IC50 [9] [µM] | IC50 [10] [µM] | IC50 [11] [µM] | IC50 [12] [µM] | IC50 [13] [µM] | IC50 [14] [µM] | % inhibition of tubulin polymerization [15] [%] | side effects in Phase I study [16]
COc1ccc(/C=C\c2cc(OC)c(OC)c(OC)c2)cc1O [Combretastatin A4, Combretastatin A-4, reference compound] | of the order of nanomoles | significant increase in blood pressure | progressive decrease of heart rate | – | – | – | – | – | – | – | – | – | – | – | – | – | – | – | –
COc1cc(/C=C\c2cc(O)c3ccsc3c2)cc(OC)c1OC [ST2151, Cis-6-[2-(3,4,5-trimethoxy-phenyl)-vinyl]-benzo[b]thiophen-4-ol] | – | – | – | 0.36 ± 1e-05 | 0.085 ± 0.0005 | 0.086 ± 0.01 | 0.049 ± 0.00064 | 0.068 ± 0.005 | 0.07 ± 0.002 | 0.087 ± 0.001 | 0.052 ± 0.0049 | 0.12 ± 1e-05 | 0.066 ± 0.0027 | 0.084 ± 0.0038 | 0.9 ± 0.065 | 0.49 ± 0.03 | 0.074 ± 0.0029 | 37.1 | –
COc1cc(/C=C\c2cc(O)c3ccoc3c2)cc(OC)c1OC [ST2179, Cis-6-[2-(3,4,5-trimethoxy-phenyl)-vinyl]-benzofuran-4-ol] | – | – | – | 0.49 ± 4e-05 | 0.044 ± 0.0038 | 0.04 ± 0.004 | – | 0.071 ± 0.017 | 0.05 ± 0.002 | 0.049 ± 0.001 | 0.04 ± 0.0039 | 0.1 ± 1e-05 | 0.038 ± 0.003 | 0.054 ± 0.009 | 0.99 ± 0.04 | 0.093 ± 0.006 | 0.053 ± 0.0013 | 44.0 | –
COc1ccc(/C=C\c2cc(OC)c(OC)c(OC)c2)cc1OP(=O)(O)O [combretastatin A4-P] | – | – | – | – | – | – | – | – | – | – | – | – | – | – | – | – | – | – | episodes of dose-limiting toxicity, including cases of acute coronary syndrome
